Reference: patent publication US6369070B1, “Methods for inhibiting mrp1” (Eli Lilly and Company, priority 1998, dated 2002)

Assays:
MRP1 = target: T1, MRP1 (Homo sapiens, UniProt P33527); assay: Reversal of MRP1-mediated doxorubicin resistance in HL60/ADR cells; format: cell-based; settings: HL60/ADR cells (printed EL60/ADR), oncolytic alone at the tested concentration
T1 construct: HL60/ADR and HL60/VCR are continuous cell lines, which were selected for doxorubicin and vincristine resistance respectively; endogenous in cells; host or cells: HL60/ADR (doxorubicin-selected HL60 human acute myeloblastic leukemia cells)
Experimental: (§1) Assay for Reversal of MRP1-Mediated Doxorubicin Resistance and MDR1-Mediated Vincristine Resistance: HL60/ADR and HL60/VCR are continuous cell lines, which were selected for doxorubicin and vincristine resistance respectively by culturing HL60, a human acute myeloblastic leukemia cell line, in increasing concentrations of doxorubicin or vincristine until a highly resistant variant was attained.
(§2) HL60/ADR and HL60/VCR cells were grown in RPMI 1640 (Gibco) containing […] (FBS) and 250 μg/ml GENTAMICIN™ (Sigma). Cells were harvested; washed twice with assay medium (same as culture media); counted; and diluted to 2×10^5 cells/ml in assay medium. Fifty microliters of cells were aliquoted into wells of a 96 well tissue culture plate. One column of each 96 well plate served as a negative control and received assay medium containing no cells.
(§3) Test compounds and reference compounds were dissolved in dimethyl sulfoxide (DMSO) at a concentration of 5 mM. Samples were diluted to 20 μM in assay medium and 25 μl of each test compound was added to 6 wells. Assay standards were run in quadruplicate. Twenty-five microliters of 0.4% DMSO was added to four wells as a solvent control.

MDR1 = target: T2, MDR1 (Homo sapiens, UniProt P08183); assay: Reversal of MDR1-mediated vincristine resistance in HL60/VCR cells; format: cell-based; settings: oncolytic alone at the tested concentration
T2 construct: HL60/ADR and HL60/VCR are continuous cell lines, which were selected for doxorubicin and vincristine resistance respectively; endogenous in cells; host or cells: HL60/VCR (vincristine-selected HL60 human acute myeloblastic leukemia cells)
Experimental: as §1, §2, §3

T2 sequence (P08183 whole entry): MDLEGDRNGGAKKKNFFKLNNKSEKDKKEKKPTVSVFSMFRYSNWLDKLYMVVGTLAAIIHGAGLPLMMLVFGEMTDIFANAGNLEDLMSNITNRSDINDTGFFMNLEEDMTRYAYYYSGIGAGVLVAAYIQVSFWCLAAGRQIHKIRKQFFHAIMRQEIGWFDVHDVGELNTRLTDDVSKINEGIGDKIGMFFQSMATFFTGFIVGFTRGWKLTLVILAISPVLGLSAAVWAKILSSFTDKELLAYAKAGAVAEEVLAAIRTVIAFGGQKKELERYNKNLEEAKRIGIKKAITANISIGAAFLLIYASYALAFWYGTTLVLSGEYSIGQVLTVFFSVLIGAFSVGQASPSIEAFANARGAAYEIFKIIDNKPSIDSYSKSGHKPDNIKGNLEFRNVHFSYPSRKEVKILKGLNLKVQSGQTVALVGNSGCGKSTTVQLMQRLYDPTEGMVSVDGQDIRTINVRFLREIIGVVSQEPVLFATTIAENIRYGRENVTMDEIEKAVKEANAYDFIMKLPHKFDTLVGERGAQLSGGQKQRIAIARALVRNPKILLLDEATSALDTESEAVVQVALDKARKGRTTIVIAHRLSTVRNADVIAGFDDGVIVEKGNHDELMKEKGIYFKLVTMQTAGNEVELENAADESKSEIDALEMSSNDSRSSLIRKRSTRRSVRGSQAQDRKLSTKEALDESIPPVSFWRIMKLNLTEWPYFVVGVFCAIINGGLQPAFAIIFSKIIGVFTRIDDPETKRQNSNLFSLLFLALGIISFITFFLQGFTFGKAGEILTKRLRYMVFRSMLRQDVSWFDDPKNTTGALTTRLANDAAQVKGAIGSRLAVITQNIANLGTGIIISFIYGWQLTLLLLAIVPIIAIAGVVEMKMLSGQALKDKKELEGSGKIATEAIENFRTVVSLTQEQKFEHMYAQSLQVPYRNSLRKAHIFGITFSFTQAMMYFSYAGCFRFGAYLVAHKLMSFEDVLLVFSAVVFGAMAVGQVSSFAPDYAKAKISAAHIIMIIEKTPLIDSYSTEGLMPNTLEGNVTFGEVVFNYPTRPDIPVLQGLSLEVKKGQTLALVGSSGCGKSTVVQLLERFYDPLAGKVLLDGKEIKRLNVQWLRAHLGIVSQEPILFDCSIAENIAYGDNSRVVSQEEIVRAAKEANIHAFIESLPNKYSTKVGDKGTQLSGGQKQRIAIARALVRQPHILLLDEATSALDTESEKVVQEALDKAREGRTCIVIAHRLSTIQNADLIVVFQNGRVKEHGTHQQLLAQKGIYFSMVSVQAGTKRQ
T1 sequence (P33527 whole entry): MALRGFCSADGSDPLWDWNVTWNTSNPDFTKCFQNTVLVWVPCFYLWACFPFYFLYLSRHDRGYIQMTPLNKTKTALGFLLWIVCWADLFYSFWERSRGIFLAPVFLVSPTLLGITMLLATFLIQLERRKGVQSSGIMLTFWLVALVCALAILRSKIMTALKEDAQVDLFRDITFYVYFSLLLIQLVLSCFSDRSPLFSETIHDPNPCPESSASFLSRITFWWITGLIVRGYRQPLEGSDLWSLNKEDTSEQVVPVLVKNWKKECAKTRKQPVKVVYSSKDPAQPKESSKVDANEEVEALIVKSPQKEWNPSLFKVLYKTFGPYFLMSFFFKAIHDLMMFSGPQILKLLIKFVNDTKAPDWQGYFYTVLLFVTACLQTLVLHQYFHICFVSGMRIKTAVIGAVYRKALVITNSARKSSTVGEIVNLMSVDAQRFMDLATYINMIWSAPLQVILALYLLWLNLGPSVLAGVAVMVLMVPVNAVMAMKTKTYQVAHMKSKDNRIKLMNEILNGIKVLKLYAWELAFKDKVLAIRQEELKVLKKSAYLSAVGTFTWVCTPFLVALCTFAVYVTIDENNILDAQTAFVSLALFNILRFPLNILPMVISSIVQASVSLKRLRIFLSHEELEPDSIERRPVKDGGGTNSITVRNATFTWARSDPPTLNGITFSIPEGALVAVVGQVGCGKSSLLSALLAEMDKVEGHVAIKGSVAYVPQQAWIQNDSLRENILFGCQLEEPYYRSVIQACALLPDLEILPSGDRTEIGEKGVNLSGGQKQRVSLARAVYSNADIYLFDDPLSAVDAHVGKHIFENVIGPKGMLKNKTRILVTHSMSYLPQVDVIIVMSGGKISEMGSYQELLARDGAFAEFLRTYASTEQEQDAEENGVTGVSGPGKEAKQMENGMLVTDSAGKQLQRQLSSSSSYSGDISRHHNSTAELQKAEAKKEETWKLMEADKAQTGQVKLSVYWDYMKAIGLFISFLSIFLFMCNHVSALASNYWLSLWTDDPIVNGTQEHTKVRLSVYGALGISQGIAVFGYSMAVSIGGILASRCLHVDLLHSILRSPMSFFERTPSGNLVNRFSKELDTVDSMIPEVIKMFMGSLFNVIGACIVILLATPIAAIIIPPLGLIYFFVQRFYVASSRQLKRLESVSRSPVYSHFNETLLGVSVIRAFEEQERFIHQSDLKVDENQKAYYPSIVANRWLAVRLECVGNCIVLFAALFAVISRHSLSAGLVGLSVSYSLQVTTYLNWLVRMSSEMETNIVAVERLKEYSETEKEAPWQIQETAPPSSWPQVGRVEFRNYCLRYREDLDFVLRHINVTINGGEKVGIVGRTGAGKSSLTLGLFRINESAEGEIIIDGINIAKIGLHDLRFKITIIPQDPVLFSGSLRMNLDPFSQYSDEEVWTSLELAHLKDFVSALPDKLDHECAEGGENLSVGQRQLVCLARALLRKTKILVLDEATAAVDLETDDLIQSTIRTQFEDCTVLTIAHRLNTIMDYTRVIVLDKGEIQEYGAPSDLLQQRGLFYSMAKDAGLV

SMILES: COc1cccc2c1C(=O)c1c(O)c3c(c(O)c1C2=O)C[C@@](O)(C(=O)CO)C[C@@H]3O[C@H]1C[C@H](N)[C@H](O)[C@H](C)O1 [doxorubicin]
- inhibition of cell growth by the oncolytic alone (MRP1): does not usually inhibit the growth
- inhibition of cell growth by the oncolytic alone (MDR1): does not usually inhibit the growth
